{
  "source": "patent US20150342960A1",
  "about": "“DRUG COMBINATIONS FOR TREATMENT OF MELANOMA AND OTHER CANCERS” (Memorial Sloan Kettering Cancer Center, priority 2014, published 2015)",
  "assay_type_in_all_cases": "cell-based",
  "key": {"AKTpS473": {"system": "AKTpS473", "assay": "Western blot IC40 of downstream effector readout", "conditions": "40% inhibition of AKTpS473, Western Blot", "description": "(§1) In total, cells were treated with 89 unique perturbations (Table 3). In paired combinations, each drug concentration was selected to inhibit the readout for the presumed target or the downstream effectors by 40% (IC40) as determined by Western Blot experiments. In single agent perturbations, each drug is applied at two different concentrations, IC40 and 2×IC40."}, "P27/Kip1": {"system": "P27/Kip1", "assay": "Western blot IC40 of downstream effector readout", "conditions": "IC40 on P27/Kip1 readout", "description": "as §1"}, "c-Myc [1]": {"system": "c-Myc", "assay": "c-Myc level by reverse phase protein arrays (RPPA)", "conditions": "Skmel133 cells, average of three replicates", "description": "Proteomic response profiles to perturbations were measured using reverse phase protein arrays. The cells were lysed 24 hours after drug treatment. Three biological replicates were spotted for each sample (e.g., drug condition) on RPPA slides. Each slide was stained with the respective Ab and 138 proteomic entities (total or phosho levels) and were profiled using specific Abs with the RPPA (Table 3).\nFIG. 14 depicts changes in c-Myc levels in response to perturbations in Skmel133 cells as measured in RPPA experiments. Each data point was log normalized with respect to the c-Myc level in unperturbed condition. c-Myc level was highest in the presence of CDK4i. Various drug combinations that included STAT3 and mTOR inhibitors follow CDK4i combinations. cMyc level was lowest when cells were perturbed with MEK, BRAF, SRC, PKC and HDAC inhibitors, respectively. Each data-point is the average of RPPA readouts from three replicates."}, "SkMel133 cells [2]": {"system": "SkMel133 cells", "assay": "Cell cycle progression, flow cytometry", "conditions": "for cells in G1 stage: 24 hours after treatment, 39% when not treated", "description": "All phenotypic measurements were made in perturbation conditions identical to those in proteomic measurements. […] The percentage of cells in the G1, G2/M, and S phases and sub-G1 fraction were recorded based on the respective distribution of DNA content in each phase."}, "c-Myc [3]": {"system": "c-Myc", "assay": "Western blot of c-Myc expression", "conditions": "SkMel133, western blot, 24 hours after drug treatment", "text": "First, it was postulated whether c-Myc levels in SkMel133 cells could be targeted using JQ1. […] Therefore, total c-Myc levels are targeted using JQ1, either as a single agent or in combination with inhibitors of the RAF/MEK/ERK pathway."}, "SkMel133 cells [4]": {"system": "SkMel133 cells", "assay": "Cell viability, resazurin assay", "conditions": "for Emax: read-out: maximal effect level (Amax, response to the drugs at highest doses)", "description": "RAFi resistant melanoma cell line SkMel133 was used in all perturbation experiments. SkMel133 cells were perturbed with 12 targeted drugs applied as single agents or in paired combinations.\nAll phenotypic measurements were made in perturbation conditions identical to those in proteomic measurements. Cell viability and cell cycle progression were measured 72 hours after drug treatment using the Resazurin assay and flow cytometry analysis respectively. The percentage of cells in the G1, G2/M, and S phases and sub-G1 fraction were recorded based on the respective distribution of DNA content in each phase."}, "SkMel133 cells [5]": {"system": "SkMel133 cells", "assay": "Apoptotic response of melanoma cells", "conditions": "48 hours after treatment; 3% in unperturbed cells", "description": "Finally, the cell cycle progression and apoptotic response of melanoma cells to JQ1 were measured. JQ1 (500 nM) induces a 50% increase in cells at G1-phase compared to the unperturbed cells (FIG. 8). […] More specifically, FIG. 8 depicts cell cycle arrest response of melanoma cells to JQ1 and MEKi combination. 51% and 88% of cells are in G1 stage 24 hours after JQ1 and MEKi treatment, respectively. JQ1+MEKi combination has an increased effect on G1 cell cycle arrest (G1=92%). 39% of cells are in G1 when they are not treated with drugs (error bars in right panel: ±SE in 3 biological replicates)."}, "BRD4": {"system": "BRD4", "assay": "Western blot of BRD4 level", "conditions": "24 hours after JQ1 treatment", "description": "FIGS. 6A-6E illustrate the combined targeting of c-Myc with MEK and BRAF leads to synergistic response in melanoma cells. […] The leftward shift of isocurves implies synergistic interactions between the applied perturbations. u denotes strength of in silico perturbations. […] The BRD4 level is unchanged in response to JQ1 treatment. […] C-Myc expression is targeted with BRD4 inhibitor, JQ1. […] Cell viability is measured using the resazurin assay. […] The combination index (CI) calculated using the drug dose response curves quantifies the drug interactions between JQ1, MEKi and RAFi (left panel). CI for a given level of inhibition is a measure of the fractional shift between the combination doses (C1 and C2) and the single agent's inhibitory concentration (Cx,1, Cx,2). It is formulated as CI=(C1/Cx,1)[…](C2/Cx,2). Amax is the response of melanoma cells to JQ1, MEKi and RAFi at highest doses applied (right panel). 1-Amax is the fraction of cells alive in response to highest drug dose normalized with respect to the non-drug treated condition. […] 86% of cells are in G1 state 48 hours after JQ1 treatment, while 42% of the cells are in G1 state before drug treatment (error bars: ±SEM in 3 biological replicates)."}, "4EBP1pS65": {"system": "4EBP1pS65", "assay": "Western blot IC40 of downstream effector readout", "conditions": "40% inhibition of 4EBP1pS65, Western Blot", "description": "as §1"}, "GSK3pS21": {"system": "GSK3pS21", "assay": "Western blot IC40 of downstream effector readout", "conditions": "40% inhibition of GSK3pS21, Western Blot", "description": "as §1"}, "MAPK1pT202": {"system": "MAPK1pT202", "assay": "Western blot IC40 of downstream effector readout", "conditions": "40% inhibition of MAPK1pT202, Western Blot", "description": "as §1"}, "S6pS240": {"system": "S6pS240", "assay": "Western blot IC40 of downstream effector readout", "conditions": "40% inhibition of S6pS240, Western Blot", "description": "as §1"}, "STAT3pY705": {"system": "STAT3pY705", "assay": "Western blot IC40 of downstream effector readout", "conditions": "40% inhibition of STAT3pY705, Western Blot", "description": "as §1"}, "[6]": {"conditions": "SkMel133, highest doses applied, normalized to non-drug treated condition"}},
  "note": "Like-named read-outs stand apart in the source and are kept apart here.",
  "data": [
    {"compound": "O=c1[nH]c2ccccc2n1C1CCN(Cc2ccc(-c3nc4cc5nc[nH]c5cc4nc3-c3ccccc3)cc2)CC1", "note": "[AKTi 1/2]", "values": [
      {"measurement": "Dose 1 (IC40 of downstream effector readout)", "setting": "AKTpS473", "value": 5.000, "unit": "nM"}
    ]},
    {"compound": "O=C(CCCCCCSc1ccc2ccccc2c1)NO", "note": "[HNHA]", "values": [
      {"measurement": "Dose 1 (IC40 of downstream effector readout)", "setting": "P27/Kip1", "value": "6,000 nM"},
      {"measurement": "c-Myc level relative to unperturbed condition", "setting": "c-Myc [1]", "value": "lowest"}
    ]},
    {"compound": "Cc1sc2c(c1C)C(c1ccc(Cl)cc1)=N[C@@H](CC(=O)OC(C)(C)C)c1nnc(C)n1-2", "note": "[JQ1]", "values": [
      {"measurement": "cells in G1 stage", "setting": "SkMel133 cells [2]", "value": 51, "unit": "%"},
      {"measurement": "cells in G1 state", "setting": "SkMel133 cells [2]; 48 hours after treatment, 42% before drug treatment", "value": 86, "unit": "%"},
      {"measurement": "increase in cells at G1-phase compared to the unperturbed cells", "setting": "SkMel133 cells [2]; JQ1 500 nM", "value": 50, "unit": "%"},
      {"measurement": "c-Myc expression", "setting": "c-Myc [3]", "value": "reduced"},
      {"measurement": "IC50", "setting": "SkMel133 cells [4]; SkMel133, combined with 5 nM MEK inhibitor, read-out: concentration of JQ1 reducing viability by 50%", "value": 100, "unit": "nM"},
      {"measurement": "maximal effect level (Amax, response to the drugs at highest doses)", "setting": "SkMel133 cells [4]; [6]", "value": 10, "unit": "%"},
      {"measurement": "IC50", "setting": "SkMel133 cells [4]; SkMel133, single agent, read-out: cell viability IC50", "value": 200, "unit": "nM"},
      {"measurement": "apoptosis", "setting": "SkMel133 cells [5]", "value": 11, "unit": "%"},
      {"measurement": "BRD4 level", "setting": "BRD4", "value": "unchanged"}
    ]},
    {"compound": "COc1ccc(C2=NC(c3ccc(Cl)cc3)C(c3ccc(Cl)cc3)N2C(=O)N2CCNC(=O)C2)c(OC(C)C)c1", "note": "(stereo not shown) [Nutlin]", "values": [
      {"measurement": "Dose 1 (IC40 of downstream effector readout)", "setting": "4EBP1pS65", "value": "3,000 nM"}
    ]},
    {"compound": "CC(C)(C)c1nc2c3cc[nH]c(=O)c3c3cc(F)ccc3c2[nH]1", "note": "[P6]", "values": [
      {"measurement": "Dose 1 (IC40 of downstream effector readout)", "setting": "GSK3pS21", "value": 20, "unit": "nM"}
    ]},
    {"compound": "O=C(NOC[C@H](O)CO)c1ccc(F)c(F)c1Nc1ccc(I)cc1F", "note": "[PD0325901]", "values": [
      {"measurement": "Dose 1 (IC40 of downstream effector readout)", "setting": "MAPK1pT202", "value": 1.5, "unit": "nM"},
      {"measurement": "cells in G1 stage", "setting": "SkMel133 cells [2]", "value": 88, "unit": "%"},
      {"measurement": "Emax", "setting": "SkMel133 cells [4]; [6]", "value": 13, "unit": "%"},
      {"measurement": "c-Myc level relative to unperturbed condition", "setting": "c-Myc [1]", "value": "lowest"}
    ]},
    {"compound": "CCCS(=O)(=O)Nc1ccc(F)c(C(=O)c2c[nH]c3ncc(Cl)cc23)c1F", "note": "[PLX4720]", "values": [
      {"measurement": "Dose 1 (IC40 of downstream effector readout)", "setting": "MAPK1pT202", "value": 60, "unit": "nM"},
      {"measurement": "IC50", "setting": "SkMel133 cells [4]; RAFi resistant SkMel133 cells, single agent, read-out: IC50 for single agent", "value": "> 1000", "unit": "nM"},
      {"measurement": "IC50", "setting": "SkMel133 cells [4]; SkMel133, combined with JQ1 (120 nM), read-out: concentration of RAFi reducing cell viability by 50%", "value": 120, "unit": "nM"},
      {"measurement": "Emax", "setting": "SkMel133 cells [4]; [6]", "value": 12, "unit": "%"},
      {"measurement": "c-Myc level relative to unperturbed condition", "setting": "c-Myc [1]", "value": "lowest"}
    ]},
    {"compound": "Cn1cc(C2=C(c3cn(CCCN)c4ccccc34)C(=O)NC2=O)c2ccccc21", "note": "[RO-31-7549]", "values": [
      {"measurement": "Dose 1 (IC40 of downstream effector readout)", "setting": "S6pS240", "value": 3500, "unit": "nM"},
      {"measurement": "c-Myc level relative to unperturbed condition", "setting": "c-Myc [1]", "value": "lowest"}
    ]},
    {"compound": "O=[N+]([O-])c1ccc2c(c1)S(=O)(=O)C=C2", "note": "[Stattic]", "values": [
      {"measurement": "Dose 1 (IC40 of downstream effector readout)", "setting": "STAT3pY705", "value": 600, "unit": "nM"}
    ]},
    {"compound": "CO[C@H]1C[C@@H]2CC[C@@H](C)[C@@](O)(O2)C(=O)C(=O)N2CCCC[C@H]2C(=O)O[C@H]([C@H](C)C[C@@H]2CC[C@@H](OC(=O)C(C)(CO)CO)[C@H](OC)C2)CC(=O)[C@H](C)/C=C(\\C)[C@@H](O)[C@@H](OC)C(=O)[C@H](C)C[C@H](C)/C=C/C=C/C=C/1C", "note": "[Temsirolimus]", "values": [
      {"measurement": "Dose 1 (IC40 of downstream effector readout)", "setting": "S6pS240", "value": 0.3, "unit": "nM"}
    ]},
    {"compound": "FC(F)c1nc2ccccc2n1-c1nc(N2CCOCC2)nc(N2CCOCC2)n1", "note": "[ZSTK474]", "values": [
      {"measurement": "Dose 1 (IC40 of downstream effector readout)", "setting": "AKTpS473", "value": 600, "unit": "nM"}
    ]}
  ]
}
